# Experimental data: patent US20230302131A1, “MPC INHIBITION FOR PRODUCING T-CELLS WITH A MEMORY PHENOTYPE” (UNIVERSITÉ DE LAUSANNE, priority 2020, published 2023)
# “Also recorded” adds a separate entry of the source.
# How the values were obtained:
# human CD4 T cells = assay: Human cord blood PBMC culture, CD62L in CD3-pos/CD8-neg (CD4) T cells; assay type: cell-based; settings: 25 μM; day 11; vs DMSO
# Method: Peripheral blood mononuclear cells were isolated from fresh umbilical vein cord blood on a Percoll gradient. PBMCs were then cultured in RPMI supplemented with 10% human serum. 10^4 PBMC's were seeded per well in a round bottom 96-well plate and activated with anti-CD3/CD28 beads at a 1:2 cell:bead ratio and 300 U/ml rhIL-2, in the presence of 25 μM UK5099 or DMSO. Cells were regularly split and CD62L expression was determined by flow cytometry on day 11.
# CD62L expression in human CD4 T cells was also analyzed. Human cord blood PBMCs were cultured and activated as described before, in the presence of 25p M UK5099 or DMSO control. About 98% of the cells in culture on day 11 are CD3-positive. Since CD3 is exclusively expressed on CD4 and CD8 T cells, we can deduct that all CD3-positive, CD8-negative must be CD4 T cells. When analyzing the CD3-pos/CD8-neg population we observed that CD62L expression is increased upon MPCi treatment (FIG. 5D).
# [1] = system: transferred OT1 CD8 T cells; ovalbumine-expressing B16 melanoma; assay: Vaccination model with UK5099 as vaccine adjuvant, then B16 melanoma challenge; assay type: in vivo, mouse; settings: vs DMSO; for control of B16 tumor growth after challenge: 0.5 mg s.c. at d0 and d2, B16 challenge 40 days post-vaccination, tumor growth and weight
# Text: One of the main goals of preventive and therapeutic vaccination in the context of pathogen infection and cancer is the establishment of a potent memory CD8 T cell pool. Since it was observed that MPC inhibition during in vitro priming of antigen-specific CD8 T cells increases their memory formation, it was investigated whether the MPCi could be used as a vaccine adjuvant. 10^5 naïve OT1 CD8 T cells were […] in healthy mice and the mice were subsequently vaccinated by a subcutaneous injection of 50 μg CpG and 10 μg SIINFEKL containing additionally 0.5 mg UK5099 or and equal volume of DMSO as control. 48 hours later, the mice received another subcutaneous injection of 0.5 mg UK5099 or and equal volume of DMSO (FIG. 4A). […] It was investigated whether this would render them better prepared for a subsequent antigen challenge, and injected 10^5 ovalbumine-expressing B16 melanoma cells s.c. in the flank of the mice at 40 days post-vaccination (FIG. 4A).
# Naïve CD8 T cells were isolated from OT1 spleens (negative selection, Stem Cell Technologies). 1×10^5 T cells were i.v. transferred in WT C57BL/6 mice, followed by a subcutaneous injection of the vaccine, consisting of 10 μg SIINFEKL peptide, 50 μg CpG and 0.5 mg UK5099 or DMSO diluted in a total of 100 μl PBS per mouse. 2 days post-vaccination, mice received a second dose of s.c. 0.5 mg UK5099 or DMSO. After 2 weeks, blood was collected from the tail vein and analyzed by flow cytometry. 40 days post-vaccination, mice were challenged by an s.c. injection of 1×10^5 SIINFEKL-expressing B16 melanoma cells. 17 days later, mice were sacrificed and the tumor was dissected.
# [2] = system: transferred OT1 cells in LM-OVA infected mice; assay: In vivo Listeria-Ova infection model after adoptive transfer of pre-treated OT1 cells; parameters: species or system mouse
# Text: In order to evaluate whether this memory phenotype is maintained in vivo, 10^5 MPCi- or DMSO-treated OT1 cells were intravenously injected in healthy mice. Twenty-four hours after cell transfer, the mice were infected with a sub-lethal dose of ovalbumine-expressing Listeria monocytogenes (LM-OVA, 2000 CFU i.v.) (FIG. 1H). […] Consequently, 28 days after LM-OVA infection, during the memory phase of the immune reaction, the proportion of central memory T cells (CD44+CD62L+) among the transferred cells in the blood was larger in mice that received cells pre-treated with MPCi (FIG. 1K). Importantly, the effects of the MPC inhibitor were target specific, since an increase in memory T cell differentiation could also be observed when MPC1 KO T cells were transferred in this Listeria model (FIG. 1L-N). In summary, MPCi-treated cells display a consistent memory phenotype upon in vivo transfer in an infection model.
# Activated CD45.1+OT-1 splenocytes were culture in vitro for 7 days as described above, collected and purified on a Ficoll gradient, allowing to separate dead and live splenocytes. Live splenocytes were counted with Trypan blue stain 0.4%. 100′000 live splenocytes were transferred into CD45.2+ host mice by tail vein injection.
# Recombinant bacteria Listeria monocytogenes deficient for actA and expressing the ovalbumin (Ova) peptide SIINFEKL were expanded and tittered. Optical density measured with a spectrophotometer was used to determine bacterial concentration and 2000 CFU were administered in each mouse by tail vein injection, […] after adoptive cell transfer. Blood samples were collected and processed for surface markers and cytokine production analyses.
# Antibody panels for blood analyses contained: CD8-PE-texas-Red, CD45.1-Pacific blue, CD45.2-FITC, CD127-PE, KLRG1-PE-Cy7, CD62L-APC, CD44-APC-Cy7, and CD27-PerCP-Cy5.5.
# OT2 CD4 T cells = assay: OT2 CD4 T cell co-culture with dendritic cells, CD62L by flow cytometry; assay type: cell-based, mouse; settings: 75 μM; day 7; vs DMSO
# Method: Naïve CD4 T cells were isolated by negative selection (Stem Cell Technologies) from the spleen of OT2 mice. Dendritic cells were isolated from spleens of C57BL/6 mice by CD11c positive selection (Stem Cell Technologies). 2×10^5 CD4 T cells were co-cultured with 1×10^6 dendritic cells in RPMI medium supplemented with 10% FBS, 1% Penicillin/Streptomycin, 50 μM β-mercaptoethanol, 1% HEPES, 1× Non-essential amino acids (Gibco 11140-035), 2 mM L-glutamine and 1 mM Sodium Pyruvate. T cells were activated by adding 1 μg/ml Ovalbumine peptide (323-339, ISQAVHAAHAEINEAGR) and 100 IU/ml rhIL-2, in the presence of 75 μM UK5099 or DMSO. Cells were split on day 4 and re-cultured in fresh medium containing 100 IU/ml rhIL-2, in the presence of 75 μM UK5099 or DMSO.
# An experiment has been performed on mouse T cells in order to evaluate if MPC inhibition also promotes memory marker expression in CD4 T cells. As indicated in the experimental scheme (FIG. 5A), CD4 T cells from OT2 mice were activated by co-culture with dendritic cells. OT2 mice are transgenic for an […] recognizing specifically a chicken ovalbumine peptide 323-339 associated with the mouse MHC class II molecule I-Ab. We activated OT2 CD4 T cells by co-culture with dendritic cells loaded with […] of the ovalbumine peptide in the presence of 100 IU/ml recombinant human IL2 in the presence of 75 μM UK5099 or DMSO control. […]
structure (smiles),measurement,setting,value
"N#CC(=Cc1cn(-c2ccccc2)c2ccccc12)C(=O)O [UK5099, 2-cyano-3-(1-phenyl-1H-indol-3-yl)-2-propenoic acid]",CD62L expression in human CD3-pos/CD8-neg (CD4) T cells,human CD4 T cells,increased
same,control of B16 tumor growth after challenge,[1],protects against tumor growth
same,control of B16 tumor growth after challenge,[1]; listed as MPCi,much better in controlling the tumor growth
same,proportion of transferred OT1 CD8 T cells that formed memory precursor cells,"[1]; 0.5 mg s.c. at d0 and d2 with CpG and SIINFEKL, blood 14 days after vaccination",drives a memory phenotype; also recorded: increased proportion
same,proportion of central memory T cells (CD44+CD62L+) among the transferred cells in the blood,"[2]; 28 days after LM-OVA infection, vs DMSO",larger
same,"frequency of memory precursor cells (CD127+, KLRG1low)","[2]; day 7 post-LM-OVA, blood, pre-treated OT1 cells vs DMSO",significantly increased
same,frequency of the transferred cells in blood,"[2]; weekly bleeding, peak of immune response and contraction phase, cells pre-treated in vitro",did not reveal significant differences
same,CD62L-positive population of mouse CD4 T cells,OT2 CD4 T cells,strong increase
